Data published in article PMC3049593 (British Journal of Cancer, 2011).

Legend:
[1] = tumour and tissue pharmacokinetics of [3H]-PG545 in Hep3b tumour-bearing mice; type: in vivo; settings: for tumour AUC0-t / tumour Cmax: model independent analysis; for Kt, rate constant of uptake from the tumor / t½b / t½t: one compartment model
Description: (§1) Analysis of the tumour [^3H]-PG545 concentration vs time data required use of a more physiologically based PK model such that tumour concentrations were estimated from the tumour mass being perfused with blood containing [^3H]-PG545 and where the blood [^3H]-PG545 concentration changed over time.
Table S1 – Pharmacokinetic analysis of mean tumour [3H]-PG545 concentrations in […]
Model Independent Analysis of Mean Tumor [3H]-PG545 Conc. Versus Time Data Parameter First Dose Second Dose Third Dose Notes: Cmax and Tmax were derived from visual inspection of the data following Cmax (µ g/ml) 37 45 44 s.c. administration of up to three doses of […]
One Compartment Model derived from Mean Tumor [3H]-PG545 Conc. Versus Time Data Parameter First Dose Second Dose Third Dose Notes: Based on assumptions including - 1) All processes are linear with no […]
timeframe of the experiment.
3) Tumor [3H]-PG545 conc is driven by the blood conc of [3H]-PG545 t½t (h) 15.7 15.4 16.3 4) Rate of uptake is proportional to blood […]
5) Rate of return from tumor to blood is proportional to tumor conc.
Kb is the rate constant of uptake into the tumor, in h-1
Kt is the rate constant of uptake from the tumor, in h-1 […]
(§2) Pharmacokinetic sampling and analysis
(§3) Samples were collected from three animals at each of four time points – 12 hours, 24 hours, 48 hours and 96 hours post-treatment. At each of these times, whole blood was collected by cardiac puncture and tumours were excised. After collection, 0.2 mL of whole blood was added to a glass scintillation vial to which 1 mL Solvable was added.
(§4) Samples were incubated for one hour at 55-60°C. 0.1 mL of 0.1 M EDTA-di-sodium salt solution and 0.3 mL to 0.5 mL of 30% hydrogen peroxide in 0.1 mL aliquots were added to the sample. Samples were gently agitated between additions to allow reaction foaming to subside. Samples were incubated for 30 minutes at room temperature. Vials were capped tightly and incubated again at 55 – 60 °C fo r 1 hour. Samples were cooled to room temperature and 15 mL of ULTIMA Gold added.
(§5) For tumour samples, 100 mg of tissue was placed in a 20 mL glass scintillation vial and 2 mL of Solvable added. The samples were incubated at 50 - 60 °C for 1 hour with occasional swirling. Samples were cooled to room temperature and for tumours, 0.3 mL of 30% hydrogen peroxide in three aliquots of 0.1 mL were added. The samples were again incubated at 50 - 60 °C for 1 hour with occasional swirling. Tumours samples were […]
(§6) then treated with 15 mL of ULTIMA Gold. To count radioactivity, a Tri-Carb 2800TR liquid scintillation counter from PerkinElmer was used at the Institute of Medical and Veterinary Science (Adelaide, Australia). All parameters were calculated using the QuantaSmart software package. Where DPM values were missing, the following procedure was performed. Efficiency was calculated by generating an efficiency curve using complete samples (where efficiency = Counts Per Minute/Disintegrations Per Minute), and plotted these values against the provided corresponding transformed spectral index of external standard (tSIE) values.
(§7) The pharmacokinetic parameters, Cmax (maximum plasma concentration), Tmax (time of maximum plasma concentration), kelim (terminal elimination rate constant), t½ (half-life), and AUC (area under the concentration versus time curve) were derived from the blood [3H]-PG545 concentration versus time data using model independent methods. In addition, a linear pharmacokinetic model comprising mono-exponential absorption and bi-exponential disposition and elimination was used to simultaneously model the mean blood concentration versus time data for [3H]-PG545 and the following pharmacokinetic parameters, Cmax and Tmax, t½, AUC0-t and AUC0-∞ for [3H]-PG545 were estimated.
(§8) Analysis of the tumour [3H]-PG545 concentration versus time data required use of a more physiologically-based pharmacokinetic model such that tumour concentrations were estimated on the basis of the tumour mass being perfused with blood containing [3H]- […]

[2] = blood pharmacokinetics of [3H]-PG545 in Hep3b tumour-bearing mice; type: in vivo; settings: for AUC0−t / Cmax / Tmax / t½: blood, 20 mg kg^−1 every 96 h
Method: as §1, with “time. […]” for “time.”
as §2, §3, §4, §5, §6, §7, §8
(Applied Biosystems) preceded by a Spark Symbiosis Direct On-line Solid Phase Extraction system. Briefly, using a deep-well 96-well plate, 100 µL plasma was mixed with 10 µL standard solution (or water for unknowns) plus 10 µL internal standard solution (PG562 at 100 µg/mL (deionised water for double blank)).This was then mixed for at least 1 min (Ratek Platform Shaker) and incubated at room temperature for 20 mins prior to addition of 25 µL SDS solution (10 mg SDS in 1 mL deionised water) + 75 µL CHAPS solution (50 mg CHAPS in 1 mL deionised water) and 50 µL Proteinase K solution (10 mg Proteinase K in 1 mL 5 mM CaCl2). Following a mixing step this was incubated at 37°C for 2.5 hours prior to addition of 250 µL deionised water and placed into the Spark Symbiosis system.
The Tmax and Cmax on each sampling day were determined for each dose level by visual inspection of the mean data. […]

[3] = tested on: LL/2 tumours and lung metastases; test: syngeneic Lewis Lung Carcinoma (LL/2) tumour growth and spontaneous metastasis model; type: in vivo, mice
Method: (§9) In the orthotopic Hep3b2.1-7 human liver cancer model, treatment of mice (n=10) began 14 days after inoculation of 2.5 × 10^6 cells. […] To initiate tumour xenografts, MDA-MB-231, PC3, Cal27 and HepG2 cells were injected s.c. into nude mice (n=8) at 4, 5, 2 and 2 × 10^7 cells ml^−1, respectively. […] In the B16F0 lung metastasis model, 2 × 10^5 cells were injected via the tail vein of C57Bl6 mice (n=8). […] Surface lung macrometastases were counted for each group (n=9) upon study termination. In the intrasplenic HT-29 xenograft model, 1 × 10^6 cells in 100 μl were injected into the spleen. […] Solid tumours were measured in two dimensions (length and width) and the tumour volume (cm^3) was calculated using the equation: V=length × width^2 × π/6. The anti-tumour activity was expressed as percent tumour growth inhibition (%TGI). Further details are available in Supplementary Methods. […]
(§10) efficacy/PK study) using either a once or twice weekly dosing schedule (see figure legends for dose schedules in each study) for up to three weeks. […]
In the LL/2 mouse model, treatment of mice commenced on the day of inoculation (Day 0). Mice inoculated subcutaneously were treated with either Vehicle Control […]
once weekly or Sorafenib (60mg/kg, once daily, p.o.). The treatments were continued for three weeks. The lungs were excised from all mice at the time of culling for metastasis […]
count determination. […]
(§11) In relevant models, solid tumours were measured in two dimensions (length and width) and the tumour volume (mm3) calculated using the equation V = length × width2 × π/6.The anti-tumour activity was assessed by the comparison of the mean tumour volume of the treated groups to the mean tumour volume of the control group and expressed as the percent Tumour Growth Inhibition (TGI) using the equation:
(§12) %TGI = (1-((VendPG545 - VstartPG545) / (VendControl - VstartControl)))*100 VendPG545 = Ending Tumour Volume of PG545-treated animal
(§13) VstartPG545 = Starting Tumour Volume of PG545-treated animal
(§14) VendControl = Ending Tumour Volume of Control animal
(§15) VstartControl = Starting Tumour Volume of Control animal […]
(§16) After collection, 0.2 mL of […]
(§17) whole blood was added to a glass scintillation vial to which 1 mL Solvable was added.
as §4, §5

[4] = tested on: Hep3b2.1-7 tumours; test: orthotopic Hep3b2.1-7 human liver cancer model; type: in vivo, mice; settings: 30 mg kg^−1 daily
Method: as §9
In the Hep3b2.1-7 model, the cells resuspended in HBSS:MatrigelTM (1:1, v/v) to a final concentration of 5 x 10^8 cells/mL were inoculated following an incision into the skin directly over the liver to expose the main lobe of the liver. The needle was introduced into the main lobe of the liver, where 2.5 x 106 Hep3b2.1-7 cells (in 5 µL with 50% Matrigel) were discharged. The treatment of mice began 24 days after inoculation of the […]
either a once or twice weekly dosing schedule (see figure legends for dose schedules in each study) for up to three weeks. […]
as §10, §11, §12, §13, §14, §15, §16, §17
as §4, with “Vials were capped tightly and incubated again at 55 – 60 °C fo r 1 hour. Samples were cooled to room temperature and 15 mL of ULTIMA Gold added.” left out

[5] = 20 mg kg^−1 s.c. every 96 h, three doses

[3H][C@H]1[C@H](O[C@@H]2O[C@H](COS(=O)(=O)[O-])[C@@H](O[C@H]3O[C@H](COS(=O)(=O)[O-])[C@@H](O[C@H]4O[C@H](COS(=O)(=O)[O-])[C@@H](O[C@H]5O[C@H](COS(=O)(=O)[O-])[C@@H](OS(=O)(=O)[O-])[C@H](OS(=O)(=O)[O-])[C@H]5OS(=O)(=O)[O-])[C@H](OS(=O)(=O)[O-])[C@H]4OS(=O)(=O)[O-])[C@H](OS(=O)(=O)[O-])[C@H]3OS(=O)(=O)[O-])[C@H](OS(=O)(=O)[O-])[C@H]2OS(=O)(=O)[O-])C[C@@H]2CC[C@H]3[C@@H]4CC[C@H]([C@H](C)CCCC(C)C)[C@@]4(C)CC[C@@H]3[C@@]2(C)[C@H]1[3H].[Na+].[Na+].[Na+].[Na+].[Na+].[Na+].[Na+].[Na+].[Na+].[Na+].[Na+].[Na+].[Na+] [[^3H]-PG545]
Cmax in kidney ([1]; following a single dose): 39 µg/g | Cmax in liver ([1]; following a single dose): 106 µg/g | tumour AUC0-t ([1]; first dose): 2800 µ g.h/g | tumour Cmax ([1]; first dose): 37 µ g/ml | tumour AUC0-t ([1]; second dose): 3662 µ g.h/g | tumour Cmax ([1]; second dose): 45 µ g/ml | tumour AUC0-t ([1]; third dose): 3304 µ g.h/g | tumour Cmax ([1]; third dose): 44 µ g/ml | Kt, rate constant of uptake from the tumor ([1]; first dose): 0.0441 h⁻¹ | t½b ([1]; first dose): 12.8 h | t½t ([1]; first dose): 15.7 h | Kt, rate constant of uptake from the tumor ([1]; second dose): 0.0449 h⁻¹ | t½b ([1]; second dose): 13.3 h | t½t ([1]; second dose): 15.4 h | Kt, rate constant of uptake from the tumor ([1]; third dose): 0.0425 h⁻¹ | t½b ([1]; third dose): 16.5 h | t½t ([1]; third dose): 16.3 h | t½b, uptake from the bloodstream into the tumour (range over doses) ([1]; one-compartment PK model): 12.8 to 16.5 h | tumour Cmax (range over doses) ([1]; tumour tissue, 20 mg kg^−1 s.c. every 96 h, three doses): 36.6 to 45.1 µg/g | tumour Tmax ([1]; tumour tissue, one dose (first dose)): 12 h | tumour Tmax ([1]; tumour tissue, three doses (third dose)): ≥ 96 h | tumour Tmax ([1]; tumour tissue, two doses (second dose)): 48 h | mean blood Cmax (range over doses) [2, 5]: 25900 to 29000 ng/mL | mean blood Tmax (range over doses) [2, 5]: 2 to 6 h | mean elimination half-life (t½) in blood ([2]; 20 mg kg^−1 s.c., up to three bolus doses at 96 h intervals): > 50 h | AUC0−t ([2]; first dose): 991 µg·h/mL | Cmax ([2]; first dose): 28000 ng/mL | Tmax ([2]; first dose): 4 h | t½ ([2]; first dose): 65 h | AUC0−t ([2]; second dose): 1208 µg·h/mL | Cmax ([2]; second dose): 26000 ng/mL | Tmax ([2]; second dose): 2 h | AUC0−t ([2]; third dose): 1556 µg·h/mL | Cmax ([2]; third dose): 29000 ng/mL | Tmax ([2]; third dose): 6 h | t½ ([2]; third dose): 117 h

CNC(=O)c1cc(Oc2ccc(NC(=O)Nc3ccc(Cl)c(C(F)(F)F)c3)cc2)ccn1 [sorafenib, reference compound]
effect on metastasis ([3]; 60 mg kg^−1 daily): no effect on metastasis | TGI (primary tumour) ([3]; 60 mg kg^−1 qd): 44% | TGI [4]: 58%
